Consider 11 compounds from PubChem BioAssay (NCI).

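Compound exposure: 48 hours, 5 concentrations, 96-well plates. At the TGI there is no net growth.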

Among the test systems are NCI-H23 lung; CCRF-CEM leukemia; 786-0 renal; HT29 colon; T-47D breast; IGROV1 ovarian; HCT-116 colon; A498 renal; SK-MEL-5 melanoma; DU-145 prostate; COLO 205 colon.
Common to all, as to assay: NCI anticancer screen, dose series, 48 h

On to `O=S(=O)(O)c1cc(Nc2ccnc3ccccc23)c2c(S(=O)(=O)O)cc(S(=O)(=O)O)cc2c1`, for which the TGI in the assay on NCI-H23 lung, in the assay with CCRF-CEM leukemia, in the assay on 786-0 renal, in the assay with HT29 colon, in the assay with T-47D breast and in the assay with IGROV1 ovarian was more than 100 µM throughout. In addition, the TGI with HCT-116 colon, in the assay with A498 renal, with SK-MEL-5 melanoma, in the assay with DU-145 prostate and in the assay on COLO 205 colon was more than 100 µM each time.

For the compound `C=CCCC(On1c(-c2ccc(Cl)cc2)csc1=S)c1ccccc1` (stereo unspecified), the TGI in the assay with NCI-H23 lung, in the assay with CCRF-CEM leukemia, with 786-0 renal, with HT29 colon, with T-47D breast and in the assay on IGROV1 ovarian was more than 100 µM each time. The TGI in the assay with HCT-116 colon is more than 100 µM; with A498 renal, more than 100 µM; in the assay with SK-MEL-5 melanoma, 64.8 µM; in the assay on DU-145 prostate, more than 100 µM; with COLO 205 colon it was more than 100 µM.

Consider `N#CCOc1cccc(C2(N3CC=CCC3)CCCCC2)c1`, for which the TGI with NCI-H23 lung, with CCRF-CEM leukemia, in the assay on 786-0 renal, in the assay on HT29 colon, in the assay with T-47D breast and in the assay with IGROV1 ovarian was more than 100 µM each time. Moreover, the TGI with HCT-116 colon, in the assay with A498 renal, in the assay on SK-MEL-5 melanoma, with DU-145 prostate and with COLO 205 colon was more than 100 µM throughout.

As to `CN(C)CCNC(=O)c1cccc2[nH]c(-c3ccncc3)nc12`, the TGI was 32.1 µM in the assay with NCI-H23 lung; 7.77 µM in the assay on CCRF-CEM leukemia; 4.15 µM in the assay on 786-0 renal; 7.27 µM with HT29 colon; more than 86.1 µM in the assay on T-47D breast; more than 56.4 µM with IGROV1 ovarian. In addition, the TGI in the assay on HCT-116 colon was 9.82 µM; in the assay on A498 renal it was 19.8 µM; in the assay on SK-MEL-5 melanoma it was 7.27 µM; with DU-145 prostate, more than 100 µM; in the assay on COLO 205 colon, 3.26 µM.

`CCOC(=O)c1nc2cc(C(F)(F)F)ccc2nc1Nc1ccc(F)cc1`: the TGI in the assay on NCI-H23 lung is more than 100 µM; in the assay with CCRF-CEM leukemia, 66.2 µM; with 786-0 renal, more than 100 µM; in the assay on HT29 colon it was more than 100 µM; with T-47D breast, more than 100 µM; in the assay with IGROV1 ovarian, more than 100 µM. Moreover, the TGI in the assay on HCT-116 colon, with A498 renal, with SK-MEL-5 melanoma, in the assay on DU-145 prostate and with COLO 205 colon was more than 100 µM each time.

Consider `COc1ccc2c(c1)CC1(O)COc3cc(OC)ccc3C1O2` (stereo unspecified), for which the TGI in the assay on NCI-H23 lung, in the assay with CCRF-CEM leukemia, with 786-0 renal, in the assay on HT29 colon, in the assay with T-47D breast and with IGROV1 ovarian was more than 100 µM each time. In addition, the TGI in the assay with HCT-116 colon, in the assay with A498 renal, with SK-MEL-5 melanoma, with DU-145 prostate and in the assay on COLO 205 colon was more than 100 µM each time.

For `COC(=O)c1c(O)ccc2c1c1c(n2Cc2ccccc2OC)C(=O)c2ccccc2C1`, the TGI in the assay on NCI-H23 lung is more than 100 µM; with CCRF-CEM leukemia it was 81.2 µM; with 786-0 renal, more than 100 µM; in the assay with HT29 colon, more than 100 µM; in the assay on T-47D breast, more than 100 µM; with IGROV1 ovarian, more than 100 µM. For the same compound, the TGI in the assay on HCT-116 colon is more than 100 µM; in the assay with A498 renal, more than 100 µM; in the assay with SK-MEL-5 melanoma it was more than 100 µM; with DU-145 prostate it was more than 100 µM; with COLO 205 colon, 30 µM.

Take `O=C1c2ccccc2-c2nnc(-c3ccc(Cl)cc3)cc21`: the TGI with NCI-H23 lung, with CCRF-CEM leukemia, with 786-0 renal, in the assay with HT29 colon, with T-47D breast and in the assay with IGROV1 ovarian was more than 10 µM each time. For the same compound, the TGI in the assay with HCT-116 colon, in the assay with A498 renal, in the assay on SK-MEL-5 melanoma, in the assay on DU-145 prostate and with COLO 205 colon was more than 10 µM throughout.

Take `O=C(CCc1ccc(O)c(O)c1)NCCc1ccc(O)c(O)c1`: the TGI in the assay with NCI-H23 lung was more than 100 µM; with CCRF-CEM leukemia, 78.3 µM; with 786-0 renal it was 33.8 µM; with HT29 colon, more than 100 µM; in the assay with T-47D breast it was more than 100 µM; in the assay with IGROV1 ovarian it was more than 100 µM. The TGI in the assay with HCT-116 colon, in the assay on A498 renal, with SK-MEL-5 melanoma, in the assay with DU-145 prostate and with COLO 205 colon was more than 100 µM in each case.

For `Cc1cc2c(cc1-c1cc3c(cc1C)C(C(C)C)=C(O)C(=O)/C3=C\Nc1c(C)n(C)n(-c3ccccc3)c1=O)/C(=C/Nc1c(C)n(C)n(-c3ccccc3)c1=O)C(=O)C(O)=C2C(C)C`, the TGI with NCI-H23 lung, in the assay on CCRF-CEM leukemia, in the assay with 786-0 renal, in the assay with HT29 colon, in the assay on T-47D breast and in the assay with IGROV1 ovarian was more than 100 µM throughout. For the same compound, the TGI in the assay with HCT-116 colon, in the assay on A498 renal, in the assay on SK-MEL-5 melanoma, in the assay on DU-145 prostate and in the assay with COLO 205 colon was more than 100 µM in each case.

On to `COc1ccc(N2C(N)=C(C#N)C(C#N)(C#N)C2c2cccc([N+](=O)[O-])c2)cc1` (stereo unspecified), for which the TGI with NCI-H23 lung was 30.8 µM; in the assay with CCRF-CEM leukemia, more than 24.6 µM; in the assay with 786-0 renal, 29.1 µM; in the assay on HT29 colon it was 29.1 µM; in the assay on T-47D breast, 28 µM; in the assay on IGROV1 ovarian, 29.7 µM. Besides, the TGI in the assay with HCT-116 colon was determined as 23.8 µM; in the assay on A498 renal, 29.9 µM; in the assay on SK-MEL-5 melanoma it was 27.4 µM; in the assay on DU-145 prostate, 31.7 µM; with COLO 205 colon, 24 µM.
